Source: patent US20120128665A1, “PRESELECTION OF SUBJECTS FOR THERAPEUTIC TREATMENT BASED ON HYPOXIC STATUS” (SYNTA PHARMACEUTICALS CORP., priority 2010, published 2012)
Read-outs that look alike come from different tables or passages of the source.

Columns and labels:
[1] = test system: HCT116 human colon carcinoma xenograft; assay: HCT116 xenograft model (hypoxic tumor); format: in vivo, nude mice
Method: (§1) Human tumor cell lines HCT116 (ATCC #CRL-247; Schroy PC, et al. Cancer 76:201-209, 1995) and 786-O (ATCC #CRL-1932; Williams RD, et al. In Vitro 12:623-627, 1976), were obtained from the American Type Culture Collection (Manassus, Va., USA) were cultured using routine methods until a sufficient number of cells were obtained for implantation. Studies were conducted on animals between 7 and 12 weeks of age at implantation. To implant HCT116 tumor cells into nude mice, the cells were trypsinized, washed in PBS and resuspended at a concentration of 75×10^6 cells/ml in McCoy's modified medium with 50% of BD Matrigel® Basement Membrane Matrix (BD Biosciences®, Bedford, Mass., USA). To implant 786-O tumor cells into nude mice, the cells were trypsinized as above, washed in PBS and resuspended at a concentration of 75×10^6 cells/ml in RPMI 1640 medium with 50% of BD Matrigel® Basement Membrane Matrix. Using a 27 gauge needle and 1 cc syringe, 0.1 ml of the cell suspension was injected into the corpus adiposum of nude mice. The corpus adiposum is a fat body located in the ventral abdominal vicera in the right quadrant of the abdomen at the juncture of the os coxae (pelvic bone) and the os femoris (femur). The location permits palpation and measurement of the tumors using external calipers. Tumor volumes (V) were calculated by caliper measurement of the width (W), length (L) and thickness (T) of tumors using the following formula: V=0.5236×(L×W×T). Animals were randomized into treatment groups so that the average tumor volumes of each group were similar at the start of dosing.
(§2) A tumor model in which the tumors have relatively high and low levels of LDH5, indicating high and low levels of hypoxia, using human tumor cell lines HCT116 and 786-O was established as set forth in the previous example.
(§3) As above, HCT116 and 786-O cells were cultured and implanted into nude mice using the methods in the previous example. Tumor growth was measured using calipers. Prior to treatment with the various agents, tumors were permitted to develop in vivo until they reached approximately 150 mm^3 in volume, which typically required 2-3 weeks following implantation. Animals were randomized into treatment groups so that the average tumor volumes of each group were similar at the start of dosing.
(§4) Tumor volume was monitored throughout the course of the study, until up to about 40 days from the date of tumor implantation. The exact number of days of the study depended on a number of factors including, for example, the number of days from implantation for the tumors to reach the desired volume.

[2] = test system: 786-O human renal carcinoma xenograft; assay: 786-O xenograft model (non-hypoxic tumor); format: in vivo, nude mice
Method: as §1, §2, §3, §4

[3] = test system: HCT116 tumors vs 786O tumors; assay: response of hypoxic vs non-hypoxic tumors; format: in vivo, nude mice; details: doses as in the 3rd table
[4] = test system: metastatic colorectal cancer; details: cited from earlier work
[5] = test system: metastatic colorectal cancer; details: cited from earlier work; remark: listed apart in the source
[6] = test system: metastatic pancreatic cancer; details: cited from earlier work
[7] = test system: advanced non-squamous, non-small cell lung cancer (NSCLC); details: bevacizumab arm = with paclitaxel and carboplatin; comparator chemotherapy alone; statistically significant; cited from earlier work
[8] = test system: glioblastoma; details: 85 patients treated with bevacizumab alone; cited from earlier work
[9] = test system: glioblastoma; details: 56 patients treated with bevacizumab alone; cited from earlier work
[10] = test system: renal cancer; details: cited from earlier work
[11] = test system: HER2-negative, metastatic breast cancer; details: added to standard chemotherapy; cited from earlier work
[12] = test system: wide range of cancer types; details: cited from earlier work
[13] = test system: solid tumors; details: once-weekly dosing; cited from earlier work
[14] = test system: cancer of the parotid gland; details: one patient; ganetespib 150 mg/m^2 with docetaxel 75 mg/m^2; cited from earlier work
[15] = test system: advanced relapsed/refractory NSCLC; details: cited from earlier work

With “bevacizumab: recombinant humanized monoclonal IgG1 antibody that binds to and inhibits human vascular endothelial growth factor (VEGF)” the “tumor growth as compared to control” value ([1]; bevacizumab higher dose (4 mg/kg) i.p., p=0.0424) was “reduced the growth of the tumor”, the “tumor growth as compared to control” value ([1]; bevacizumab lower concentration (1 mg/kg) i.p., p=0.1274) was “small trend to decreased tumor growth” and the “tumor burden as compared to control” value ([2]; bevacizumab higher dose (4 mg/kg) i.p., p=0.011) was “greatest tumor burden”. For the same molecule, the “tumor burden as compared to control” value ([2]; low dose bevacizumab (1 mg/kg) i.p., p=0.437) was “no significant difference in tumor burden”, the “effectiveness at slowing tumor growth in tumors with high levels of hypoxia (HCT116) compared with low levels (786O)” value [3] was “more effective” and the median survival ([4]; bevacizumab arm = bevacizumab plus 5-FU/Leucovorin, comparator 5-FU/Leucovorin alone, not statistically significant) was 16.6 months. The “improvement in median survival” value ([4]; bevacizumab plus 5-FU/Leucovorin vs 5-FU/Leucovorin alone) was 29%, the median survival ([5]; bevacizumab and 5-FU/Leucovorin (n=249) vs IFL regimen alone) was 17.9 months and the progression-free survival ([5]; bevacizumab plus 5-FU/Leucovorin vs IFL regimen alone) was 8.7 months. For the same molecule, the “progression free survival HR” value ([6]; bevacizumab vs placebo arm, both with gemcitabine and erlotinib, 95% CI 0.61 to 0.96, P=0.0002) was 0.73, the median overall survival ([6]; bevacizumab, gemcitabine and erlotinib, 306 patients) was 7.1 months and the median overall survival [7] was 12.5 months. For the same molecule, the “patients whose tumors shrank” value [8] was 26%, the patients who responded [9] was 20% and the “patients with decreased tumor size” value ([10]; bevacizumab arm = with interferon-alpha, comparator interferon-alpha alone) was 30%. The “increase in progression-free survival time compared to interferon-alpha alone” value ([10]; bevacizumab with interferon-alpha) was “about 5 months” and the “keeping cancer from worsening” value [11] was “does not keep cancer from worsening for a long enough time to be clinically meaningful”.
In the case of CC(C)c1cc(-c2nnc(O)n2-c2ccc3c(ccn3C)c2)c(O)cc1O [ganetespib], the “effectiveness at slowing tumor growth in tumors with high levels of hypoxia (HCT116) compared with low levels (786O)” value [3] is given as “not found to work better”, the “activity against cancers resistant to imatinib, sunitinib, erlotinib and dasatinib” value [12] is given as “potent activity” and the “activity against a wide range of cancer types” value ([12]; lung, prostate, colon, breast, gastric, pancreatic, GIST, melanoma, AML, CML, lymphomas, multiple myeloma, in vitro and in vivo models) is given as “potent activity”. The “evaluable patients with disease control” value [13] was “more than half”, the “outcome in several patients who had progressed or failed multiple prior therapies” value [13] was “substantial tumor shrinkage and prolonged disease control” and the “shrinkage of target tumor lesions, confirmed partial response” value [14] was “over 50%”. The “patients with durable, objective responses” value ([15]; ALK rearrangement, four patients) was 50%, the “patients who received ganetespib for 16 weeks or more” value ([15]; ALK rearrangement, seven of eight) was 88% and the “patients with tumor shrinkage” value ([15]; ALK rearrangement, six of eight patients) was 75%. The disease control rate ([15]; broad population) was 54%, the “hepatic and ocular toxicities” value ([15]; compared with other Hsp90 inhibitors) was “did not have the serious hepatic or common ocular toxicities” and the tolerability ([15]; in vivo) was “well tolerated”. The “patients with tumor shrinkage” value ([15]; tumors with a KRAS mutation) was 62%.
